This assay addresses human metabotropic Glutamate 4 receptor (mGluR4) (Homo sapiens (Human), UniProt Q14833). Kind of assay: Assay A: In vitro testing of mGluR4 potency (cAMP HTRF, glutamate/forskolin stimulated). Format: cell-based. The note with it: HEK293 cells overexpressing human mGluR4; 10 uM L-glutamic acid, 1 uM forskolin. The method, then: A. In Vitro Testing of mGluR4 Potency
The in vitro activity of the compounds according to the invention may be investigated as follows:
The HEK293 cell overexpressing the human metabotropic Glutamate 4 receptor are thawed at 37° C. and immediately diluted with cell culture medium. After centrifugation, the cell pellet is re-suspended in medium and then distributed from a stirred spinner flask into the wells of the assay plate. The plates are incubated for one hour at room temperature before they are incubated for 24 hours at 37° C./5% CO2. After washing the cells in the plate three times with 80 uL HBSS/HEPES buffer (10 uL buffer remained in the wells after washing), 5 uL per well of compounds diluted in HBSS/HEPES buffer containing 0.2% BSA (final concentration: 0.1%) and 1 mM IBMX (final concentration: 0.5 mM) are added to the wells of the assay plate. Thereafter 5 uL per well of L-Glutamic acid (final concentration: 10 uM), forskolin (final concentration: 1 uM) and 1 mM IBMX (final concentration: 0.5 mM) dissolved in HBSS/HEPES buffer containing 0.2% BSA (final concentration: 0.1%) are added to the assay plate (final DMSO concentration: 1%). […] The emission at 615 nm and 665 nm (Excitation wavelength: 320 nm) are measured on the EnVision™ reader (PerkinElmer). The ratio between the emission at 665 nm and 615 is calculated by the reader. […]
(Time-resolved FRET reads energy transfer from a long-lived donor to a nearby acceptor.)

The text below walks through data of US12421218B2, “Substituted pyrazine-carboxamide derivatives” (Boehringer Ingelheim International GmbH, priority 2022, dated 2025).

Structures are written as SMILES.

Chain of human metabotropic Glutamate 4 receptor (mGluR4) (Q14833 33-912): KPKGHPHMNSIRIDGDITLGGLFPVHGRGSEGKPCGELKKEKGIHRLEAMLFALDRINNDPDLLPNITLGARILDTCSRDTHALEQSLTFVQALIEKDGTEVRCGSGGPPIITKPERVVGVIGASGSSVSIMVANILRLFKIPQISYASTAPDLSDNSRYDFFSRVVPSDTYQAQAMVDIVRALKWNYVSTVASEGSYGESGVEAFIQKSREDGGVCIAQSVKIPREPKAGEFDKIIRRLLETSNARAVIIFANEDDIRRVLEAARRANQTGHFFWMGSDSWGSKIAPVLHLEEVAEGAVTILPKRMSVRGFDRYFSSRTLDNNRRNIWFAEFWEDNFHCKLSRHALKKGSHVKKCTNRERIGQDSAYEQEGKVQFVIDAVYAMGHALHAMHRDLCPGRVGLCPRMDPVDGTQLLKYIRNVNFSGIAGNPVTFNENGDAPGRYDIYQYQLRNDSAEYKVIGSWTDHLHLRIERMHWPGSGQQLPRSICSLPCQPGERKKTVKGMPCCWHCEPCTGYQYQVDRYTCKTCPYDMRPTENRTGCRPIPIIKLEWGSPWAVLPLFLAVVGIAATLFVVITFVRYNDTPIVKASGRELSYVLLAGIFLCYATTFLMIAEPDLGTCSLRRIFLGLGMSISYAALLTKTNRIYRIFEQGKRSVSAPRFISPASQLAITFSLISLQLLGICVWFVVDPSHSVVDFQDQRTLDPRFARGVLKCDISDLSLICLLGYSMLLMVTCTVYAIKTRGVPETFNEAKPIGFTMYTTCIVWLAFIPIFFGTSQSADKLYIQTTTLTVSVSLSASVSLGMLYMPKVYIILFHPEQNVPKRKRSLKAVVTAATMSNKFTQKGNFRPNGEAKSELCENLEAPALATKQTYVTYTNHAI

The IC50 is the concentration at which inhibition is half-maximal. For `CCn1c([C@@H](NC(=O)c2cnc(C(F)F)cn2)C(C)C)nc2cc(F)ccc21` [Example 59, 5-(difluoromethyl)-N-[(1S)-1-(1-ethyl-5-fluoro-1H-1,3-benzodiazol-2-yl)-2-methylpropyl]pyrazine-2-carboxamide], the IC50 was 4 nM.
